Assay results reported in patent publication US9701987B2, “Fermentation process for the production and control of pyruvate-derived products” (priority 2014, dated 2017).
Like-named read-outs stand apart in the source and are kept apart here.

How the values were obtained:
Clostridium ljungdahlii = settings: WO 2002/08438; cited from earlier work
[1] = system: Clostridium autoethanogenum; test: Example 1: fermentation with vitamin B5 concentration increased during the run, effect on 2,3-BDO production; assay type: cell-based
Method: This experiment was carried out according to the general fermentation process described above. […] Dilution rate and bacterial dilution rate were adjusted so that by day 5.0 these were 1.8 day^−1 and 0.85 day^−1, respectively.
On day 8.1 the concentration of vitamin B5 in media was increased 10 fold with all other operational parameters remaining the same. During this time the biomass production rate dropped slightly so accordingly the vitamin B5 feed rate was increased just over tenfold to 2180 μg/g-cell produced. Following the increase in the vitamin B5 concentration, the specific 2,3-BDO production rate and concentration increased with other parameters remaining stable.
This is a surprising result as it is only the specific 2,3-BDO production rate and the concentration of 2,3-BDO that increases while the production rate of other metabolites, e.g. ethanol and biomass remains the same.

[2] = system: Clostridium autoethanogenum; test: Example 3: fermentation with excess vitamin B5 from the start, effect on 2,3-BDO production; assay type: cell-based
Method: The example above can be compared to results when excess B5 vitamin is present in the fermentation media throughout the fermentation. […] In this case the 2,3-BDO concentration reached 9 g/L with an ethanol:2,3-BDO ratio of 2:1 (FIG. 2), and a CO uptake of 9.4 mol/L/day (FIG. 3). The feed rate of B5 vitamin throughout the fermentation was >2000 μg/g-cell produced. During day 6.0 to 7.0 as the biomass and 2,3-BDO production flattened out the feed rate of B5 vitamin was 2011 μg/g-cell produced. The specific 2,3-BDO production rate was 1.2 g/day per g-biomass, the specific ethanol production rate was 2.4 g/day per g-biomass.

[3] = system: Clostridium autoethanogenum; test: Example 5: fermentation with vitamin B7 concentration increased then reduced, effect on 2,3-BDO production; assay type: cell-based
Method: In this example the impact of B7 on the production of 2,3-BDO was tested using a fermentation grown according to the general fermentation process. […] Dilution rate and bacterial dilution rate were adjusted so that by day 8.0 these were 1.8 day^−1 and 0.75 day^−1 respectively. […] The results achieved at that time are summarised below;
On day 8.69 the concentration of B7 in media was increased 10 fold with all other operational parameters being kept constant. During this time the biomass production rate remained stable so the B7 feed rate was increased over tenfold to 980 μg/g cell produced. Following the increase in the B7 feed the specific 2,3-BDO production rate and the concentration of 2,3-BDO increased. The data obtained from days 13-14 are summarised below;
As the 2,3-BDO concentration was reaching a peak (day 14.04) the B7 in the media was reduced 10 fold such that the specific B7 feed rate was reduced back to 90 μg/g cell produced.
This is a surprising result as it is the specific 2,3-BDO production rate and the concentration of 2,3-BDO that increases rather than any other metabolite and or biomass.

[4] = reported in the art; cited from earlier work
[5] = system: Clostridium autoethanogenum
Source text: A fermentation was started using the general fermentation process with gas and agitation were increased to minimize acetate and maximize ethanol production. Dilution rate and bacterial dilution rate were adjusted by day 4.0 to 2.0 day-^1 and 1.2 day-1, respectively. These values were maintained for the remainder of the fermentation.
On day 14.1 the concentration of B1 in media was decreased to reduce the specific B1 feed rate with all other operational parameters being kept constant.
It has been reported in the art that the limiting concentration of B1 for growth and acetate production is 6.5 μg/g cell produced.

[6] = vitamin B5 feed rate 198 μg/g-cell produced, day 6.0-8.0
[7] = vitamin B5 feed rate 2180 μg/g cell produced
[8] = B5 vitamin feed rate 2011 μg/g-cell produced, day 6.0 to 7.0
[9] = B5 vitamin feed rate >2000 μg/g-cell produced throughout the fermentation
[10] = vitamin B7 feed rate 90 μg/g cell produced, before increase
[11] = vitamin B7 feed rate 980 μg/g cell produced, days 13-14
[12] = vitamin B7 reduced back to 90 μg/g cell produced (after day 14.04)
[13] = vitamin B1 feed rate 303 μg/g cell produced, day 10.0-14.0
[14] = vitamin B1 feed rate decreased to 61 μg/g cell produced

CC(C)(CO)[C@@H](O)C(=O)NCCC(=O)O [vitamin B5, Pantothenic acid]
vitamin B5 required for growth (Clostridium ljungdahlii): 50 μg/g biomass produced
2,3-BDO concentration [1, 6]: 4.8 g/L
Acetate concentration [1, 6]: 7.75 g/L
CO uptake [1, 6]: 8.4 mol/L/day
Ethanol concentration [1, 6]: 18.69 g/L
Specific 2,3-BDO production rate [1, 6]: 0.81 g 2,3-BDO/g-biomass/day
Specific Ethanol production rate [1, 6]: 3.17 g ethanol/g-biomass/day
Biomass ([1]; vitamin B5 feed rate 198 μg/g-cell produced, stable period day 6.0-8.0): 10.62 g/L
2,3-BDO concentration [1, 7]: 7.0 g/L
CO uptake [1, 7]: 8.0 mol/L/day
Ethanol concentration [1, 7]: 19.49 g/L
Specific 2,3-BDO production rate [1, 7]: 1.32 g 2,3-BDO/g biomass/day
Specific Ethanol production rate [1, 7]: 3.3 g ethanol/g biomass/day
Biomass ([1]; vitamin B5 feed rate 2180 μg/g cell produced, after 10 fold increase on day 8.1): 10.4 g/L
Specific 2,3-BDO production rate [2, 8]: 1.2 g/day per g-biomass
Specific Ethanol production rate [2, 8]: 2.4 g/day per g-biomass
2,3-BDO concentration [2, 9]: 9 g/L
CO uptake [2, 9]: 9.4 mol/L/day

O=C(O)CCCC[C@@H]1SC[C@@H]2NC(=O)N[C@@H]21 [vitamin B7, Biotin]
impact of increasing B7 on the specific ethanol production rate ([3]; B7 feed rate 90 to 980 μg/g cell produced): does not impact
2,3-BDO concentration [3, 10]: 4.94 g/L
Acetate concentration [3, 10]: 8.13 g/L
Biomass [3, 10]: 9.42 g/L
CO uptake [3, 10]: 8.0 mol/L/day
Ethanol concentration [3, 10]: 15.63 g/L
Specific 2,3-BDO production rate [3, 10]: 1.19 g 2,3-BDO/g biomass/day
Specific Ethanol production rate [3, 10]: 3.78 g ethanol/g biomass/day
2,3-BDO concentration [3, 11]: 7.34 g/L
Biomass [3, 11]: 9.23 g/L
CO uptake [3, 11]: 7.6 mol/L/day
Ethanol concentration [3, 11]: 14.92 g/L
Specific 2,3-BDO production rate [3, 11]: 1.97 g 2,3-BDO/g biomass/day
Specific Ethanol production rate [3, 11]: 3.85 g ethanol/g biomass/day
2,3-BDO concentration [3, 12]: 4.76 g/L
Biomass [3, 12]: 10.53 g/L
CO uptake [3, 12]: 7.6 mol/L/day
Ethanol concentration [3, 12]: 15.70 g/L
Specific 2,3-BDO production rate [3, 12]: 1.1 g 2,3-BDO/g biomass/day
Specific Ethanol production rate [3, 12]: 3.59 g ethanol/g biomass/day

Cc1ncc(C[n+]2csc(CCO)c2C)c(N)n1.Cl.[Cl-] [vitamin B1, Thiamine hydrocloride]
limiting concentration of B1 for growth and acetate production [4]: 6.5 μg/g cell produced
effect of decreasing the B1 concentration on ethanol production ([5]; B1 feed rate 303 to 61 μg/g cell produced, CO uptake constant): unaffected
2,3-BDO concentration [5, 13]: 3.4 g/L
Biomass [5, 13]: 5.79 g/L
CO uptake [5, 13]: 8.0 mol/L/day
Ethanol concentration [5, 13]: 16.05 g/L
Specific 2,3-BDO production rate [5, 13]: 1.17 g 2,3-BDO/g biomass/day
Specific Ethanol production rate [5, 13]: 5.54 g ethanol/g biomass/day
2,3-BDO titre [5, 14]: 1.6 g/L
Biomass [5, 14]: 6.75 g/L
CO uptake [5, 14]: 8.0 mol/L/day
Ethanol concentration [5, 14]: 18.23 g/L
Specific 2,3-BDO production rate [5, 14]: 0.47 g 2,3-BDO/g biomass/day
Specific Ethanol production rate [5, 14]: 5.4 g ethanol/g biomass/day
